Tested on: MIA PaCa-2 cells
Assay: Bru-seq analysis for nascent RNA synthesis (log2FC of genes, GSEA gene sets)
Assay type: cell-based, human
Conditions: 4 h
[1] = gene set HALLMARK_IL2_STAT5_SIGNALING
[2] = gene set HALLMARK_IL6_JAK_STAT3_SIGNALING
[3] = gene set HALLMARK_MTORC1_SIGNALING
[4] = gene set HALLMARK_OXIDATIVE_PHOSPHORYLATION
[5] = gene set HALLMARK_PI3K_AKT_MTOR_SIGNALING
[6] = gene set HALLMARK_TNFA_SIGNALING_VIA_NFKB
[7] = gene set HALLMARK_UNFOLDED_PROTEIN_RESPONSE
[8] = gene set HALLMARK_UV_RESPONSE_UP
[9] = gene set HALLMARK_XENOBIOTIC_METABOLISM
[10] = gene set HELLER_SILENCED_BY_METHYLATION_DN
[11] = gene set KAN_RESPONSE_TO_ARSENIC_TRIOXIDE
[12] = gene set KEGG_ACUTE_MYELOID_LEUKEMIA
[13] = gene set KEGG_ADIPOCYTOKINE_SIGNALING_PATHWAY
[14] = gene set KEGG_ALDOSTERONE_REGULATED_SODIUM_REABSORPTION
[15] = gene set KEGG_ANTIGEN_PROCESSING_AND_PRESENTATION
[16] = gene set KEGG_CITRATE_CYCLE_TCA_CYCLE
[17] = gene set KEGG_ENDOMETRIAL_CANCER
[18] = gene set KEGG_FATTY_ACID_METABOLISM
[19] = gene set KEGG_FRUCTOSE_AND_MANNOSE_METABOLISM
[20] = gene set KEGG_GLYCEROLIPID_METABOLISM
[21] = gene set KEGG_GLYCOLYSIS_GLUCONEOGENESIS
[22] = gene set KEGG_INSULIN_SIGNALING_PATHWAY
[23] = gene set KEGG_MAPK_SIGNALING_PATHWAY
[24] = gene set KEGG_MTOR_SIGNALING_PATHWAY
[25] = gene set KEGG_OXIDATIVE_PHOSPHORYLATION
[26] = gene set KEGG_PARKINSONS_DISEASE
[27] = gene set KEGG_PORPHYRIN_AND_CHLOROPHYLL_METABOLISM
[28] = gene set KEGG_PPAR_SIGNALING_PATHWAY
[29] = gene set KEGG_PYRUVATE_METABOLISM
[30] = gene set KEGG_SNARE_INTERACTIONS_IN_VESICULAR_TRANSPORT
[31] = gene set KEGG_SYSTEMIC_LUPUS_ERYTHEMATOSUS
[32] = gene set KEGG_VALINE_LEUCINE_AND_ISOLEUCINE_DEGRADATION
[33] = gene set PODAR_RESPONSE_TO_ADAPHOSTIN_UP
[34] = gene set REACTOME_CHOLESTEROL_BIOSYNTHESIS
[35] = gene set REACTOME_RNA_POL_I_PROMOTER_OPENING
[36] = gene set REACTOME_UNFOLDED_PROTEIN_RESPONSE
[37] = gene set SCHMIDT_POR_TARGETS_IN_LIMB_BUD_UP
[38] = gene set WILCOX_RESPONSE_TO_PROGESTERONE_UP
[39] = gene set ZHANG_TLX_TARGETS_36HR_UP
[40] = top downregulated genes, MIA PaCa-2 cells

## CCN(CC)CCCC(C)Nc1cnc(C(=O)Nc2cc(C)cc3cccnc23)cn1 (stereo not shown) [J4, 5-((5-(diethylamino)pentan-2-yl)amino)-N-(6-methylquinolin-8-yl)pyrazine-2-carboxamide]
[1]
  ES: 0.424
  NES: 1.597
[2]
  ES: 0.443
  NES: 1.405
[3]
  ES: 0.626
  NES: 2.450
Gene set HALLMARK_MYOGENESIS
  ES: 0.541
  NES: 1.885
[4]
  ES: 0.403
  NES: 1.601
Gene set HALLMARK_P53_PATHWAY
  ES: 0.565
  NES: 2.171
Gene set HALLMARK_PEROXISOME
  ES: 0.457
  NES: 1.612
[5]
  ES: 0.566
  NES: 2.033
[6]
  ES: 0.536
  NES: 2.043
[7]
  ES: 0.582
  NES: 2.173
[8]
  ES: 0.478
  NES: 1.769
[9]
  ES: 0.409
  NES: 1.503
[10]
  ES: 0.714
  NES: 2.396
Gene set HORTON_SREBF_TARGETS
  ES: 0.911
  NES: 2.446
[11]
  ES: 0.655
  NES: 2.270
[12]
  ES: 0.524
  NES: 1.701
[13]
  ES: 0.547
  NES: 1.770
[14]
  ES: 0.556
  NES: 1.480
[15]
  ES: 0.536
  NES: 1.506
[16]
  ES: 0.561
  NES: 1.683
[17]
  ES: 0.482
  NES: 1.543
[18]
  ES: 0.507
  NES: 1.505
[19]
  ES: 0.547
  NES: 1.529
[20]
  ES: 0.573
  NES: 1.640
[21]
  ES: 0.578
  NES: 1.735
[22]
  ES: 0.455
  NES: 1.663
Gene set KEGG_LYSOSOME
  ES: 0.611
  NES: 2.224
[23]
  ES: 0.393
  NES: 1.504
Gene set KEGG_MELANOGENESIS
  ES: 0.526
  NES: 1.713
[24]
  ES: 0.530
  NES: 1.631
[25]
  ES: 0.464
  NES: 1.705
[26]
  ES: 0.424
  NES: 1.536
[27]
  ES: 0.613
  NES: 1.657
[28]
  ES: 0.583
  NES: 1.733
Gene set KEGG_PROSTATE_CANCER
  ES: 0.445
  NES: 1.564
[29]
  ES: 0.525
  NES: 1.529
[30]
  ES: 0.535
  NES: 1.642
[31]
  ES: 0.689
  NES: 2.185
[32]
  ES: 0.491
  NES: 1.536
Gene set LEONARD_HYPDXIA
  ES: 0.811
  NES: 2.480
Gene set LE_EGR2_TARGETS_DN
  ES: 0.689
  NES: 2.287
[33]
  ES: 0.678
  NES: 2.520
Gene set QI_HYPDXIA
  ES: 0.624
  NES: 2.258
Gene set REACTOME_AMYLO1DS
  ES: 0.753
  NES: 2.309
[34]
  ES: 0.913
  NES: 2.477
[35]
  ES: 0.820
  NES: 2.377
[36]
  ES: 0.651
  NES: 2.246
[37]
  ES: 0.921
  NES: 2.469
[38]
  ES: 0.642
  NES: 2.380
[39]
  ES: 0.615
  NES: 2.339
Gene set ZHANG_TLX_TARGETS_UP
  ES: 0.710
  NES: 2.353
[40]
  log2FC ABCA1: −1.14
  log2FC AGAP6: −0.85
  log2FC AKAP5: −0.77
  log2FC CACNG8: −0.75
  log2FC CCND1: −0.67
  log2FC FERMT1: −0.91
  log2FC GPR75-ASB3: −0.89
  log2FC GPR135: −1.30
  log2FC HRH4: −1.09
  log2FC MX2: −0.78
  log2FC NEXN: −0.76
  log2FC NOG: −0.93
  log2FC NOXRED1: −0.73
  log2FC NPIPB11: −0.67
  log2FC NPR2: −1.08
  log2FC NTSR1: −0.89
  log2FC PTCH2: −0.72
  log2FC RFLNB: −0.79
  log2FC SPDYA: −1.18
  log2FC SYCE2: −0.98
  log2FC TAS2R20: −0.81
  log2FC TNS4: −1.05
  log2FC TSPAN4: −0.68
  log2FC TXNRD3NB: −0.72
  log2FC ZDHHC11: −0.86

— patent publication US20220081412A1, “QUINOLINYL-PYRAZINE-CARBOXAMIDE COMPOUNDS AND USES THEREOF” (The Regents of the University of Michigan, priority 2018, published 2022)
